Entries after “also recorded” stand apart in the source; their conditions may differ.
Experiments:
[1] = target: T1, Glu 175 Val mutation type ATP5B (Homo sapiens, UniProt P06576, E175V); experiment: GST-DHFR / MTX-phenformin pull-down, Glu 175 Val mutation type ATP5B; type: binding; conditions: pull-down assay as Example 5(4)
T1 construct: a complete length cDNA of about 1600 base pairs coding for a Glu 175 Val mutation type ATP5B; made in house
Excerpt: Using the aforementioned expression plasmid pcDNA-ATP5B as the template and using respective sets of primers of the nucleotide sequences represented by SEQ ID NO:87 and SEQ ID NO:81, and SEQ ID NO:80 and SEQ ID NO:88, two DNA fragments of about 530 base pairs of 5′-side and about 1080 base pairs of 3′-side of cDNA having a mutation in which the 175th position of amino acid, Glu, of human ATP5B was replaced by Val were amplified by PCR. All of the PCR reaction, cloning stem and determination of nucleotide sequence were the same as the methods shown in Example 5(1). Using an equivalent mixture of the thus obtained two PCR products as the template, PCR was carried out using the primers represented by SEQ ID NO:80 and SEQ ID NO:81 this time, thereby obtaining a complete length cDNA of about 1600 base pairs coding for a Glu 175 Val mutation type ATP5B. The thus obtained cDNA fragment was cloned into an expression vector (pcDNA3.1/V5-His-TOPO; Invitrogen), and then the nucleotide sequence inserted into the vector was identified using the synthetic primer represented by SEQ ID NO:90 to confirm that the Glu 175 Val mutation was formed in ATP5B. The thus obtained expression plasmid is referred to as pcDNA-ATP5B(E175V) hereinafter. […]

[2] = target: T2, Asp 295 Val mutation type ATP5B (Homo sapiens, UniProt P06576, D295V); experiment: GST-DHFR / MTX-phenformin pull-down, Asp 295 Val mutation type ATP5B; type: binding; conditions: pull-down assay as Example 5(4)
T2 construct: a complete length cDNA coding for an Asp 295 Val mutation type ATP5B was obtained; made in house

[3] = tested on: AMPK; experiment: AMPK activation ability detection in HeLa S3 cell (anti-phospho AMPK western blotting); type: cell-based, human; conditions: phenformin 1 mM, 1 hr
Protocol: This expression plasmid pcDNA-LKB1 and the pcDNA-ATP5B prepared in the aforementioned Example 5(1) or an empty vector (pcDNA3.1) (Invitrogen) were transferred into HeLa S3 cell. The HeLa S3 cell (ATCC) was cultured in a 6 well culture plate (35 mm in well diameter) until it reached a state of 70% confluent, by adding 2 ml of a minimum essential medium DMEM (Gibco) containing 10% fetal bovine serum (Sigma) to each well of the culture plate. The medium was substituted by 1 ml per well of a serum-free medium OPTI MEM I (Invitrogen), and 3.0 μg/well of each of the empty vector (pcDNA3.1), pcDNA-LKB1 and pcDNA-ATP5B was transiently transferred using Lipofect amine 2000 (Invitrogen). After 12 hours of the culturing, this was substituted by 2 ml/well of DMEM containing 10% of fetal bovine serum from which low molecular substances had been removed by a charcoal treatment, and further cultured for 36 hours. This was further cultured for 1 hour (1 hr) under a condition of adding phenformin (Sigma) to a final concentration of 1 mM or the solvent (DMSO) alone. The medium was discarded, the cells were washed with a phosphate buffer (to be referred to as PBS hereinafter, and then the cells were lysed by adding 0.15 ml of the aforementioned buffer A (however, the NaCl concentration was 150 mM, and various phosphatase inhibitors; 2 mM Na3VO4, 10 mM NaF, 25 mM β-glycerophosphate, 0.2 mM Na2MoO4, 20 nM okadaic acid, were added). The activity of AMPK in the cells was detected at the level of phosphorylation of molecules by a conventionally known SDS electrophoresis and a western blotting which uses an anti-phosphorylation AMPK antibody (Phospho-AMPK-α(Thr172) Antibody, Daiichi Pure Chemicals). In this case, in order to confirm that there is no difference in the amount of protein of AMPKα (an AMPK subunit which undergoes phosphorylation) among samples, a western blotting which uses an anti-AMPKα antibody (Daiichi Pure Chemicals) was simultaneously carried out. […] However, in the cell in which human ATP5B was expressed by transferring pcDNA-ATP5B, activation of AMPK by phenformin treatment was not found.

[4] = target: T3, ATP5B (Rattus norvegicus, UniProt P10719); experiment: GST-HSPA4 pull-down from L 6 cell extract, silver staining and mass spectrum identification; type: binding; conditions: phenformin 50 nM added vs no addition
T3 construct: a rat skeletal muscle-derived cell, L 6 cell (ATCC); endogenous in cells; host or cells: L6 (rat skeletal muscle)
Excerpt: Using the aforementioned method shown in Example 2(2), attempt was made to screen the target protein of biguanide whose direct target protein has been unclear in spite of its significant drug effect as an agent for treating diabetes. Firstly, a rat skeletal muscle-derived cell, L 6 cell (ATCC), was suspended in a minimum essential medium (αMEM, Invitrogen) containing 10% fetal calf serum (FCS) and cultured on a collagen-coated plate of 15 cm in diameter (Asahi Techno Glass) until reaching the confluent state. The resulting cells were washed twice with 15 ml of ice-cooled phosphate buffer (PBS) and then lysed by adding 2.0 ml of the aforementioned buffer A, and the cell extract was collected using a scraper. […] After 1 hour of shaking at 4° C., the protein binding to the GST-HSPA4 on beads was co-precipitated by centrifugation. In this connection, in order to prevent drop out of the molecular chaperone protein from the beads, the molecular chaperone protein and beads were used by chemically crosslinking them in advance by a conventionally known method. […] As a result, a large protein band of about 60 kDa, in which its amount to bind to the molecular chaperone protein is reduced at the time of adding phenformin in comparison with the case of no addition, was detected. […]

[5] = target: T4, human ATP5B (Homo sapiens, UniProt P06576); experiment: competitive inhibition of binding of ATP5B and MTX-phenformin; conditions: MTX-phenformin 10 μM; free phenformin 10 μM; compounds A and B 'addition of 10'
T4 construct: an attempt was made to amplify complete length cDNA of human ATP5B; made in house; host or cells: cell-free: TNT Quick Coupled Transcription/Translation System (Promega) from pcDNA-ATP5B; GST-DHFR from E. coli BL21

[6] = target: T4, human ATP5B; experiment: GST-DHFR / MTX-phenformin GST pull-down of 35S-labeled ATP5B; type: binding; conditions: 10 μM MTX-phenformin fixed to GST-DHFR; wild type ATP5B
Protocol: Promega) and 0.74 MBq of a radioisotope (redivue Pro-mix L-[35S]; Amersham) and in accordance with the protocols attached thereto. A 15 μl portion of this human ATP5B protein preparation liquid and 1 μg for each of the GST protein or GST-DHFR, purified on the glutathione Sepharose beads, were mixed and shaken at 4° C. for 1 hour after adding 0.3 ml of buffer A thereto. Thereafter, the protein binding to the GST protein or GST-DHFR on beads was co-precipitated by centrifugation. After repeating this operation 4 times, proteins in the precipitate were separated by SDS polyacrylamide gel electrophoresis in accordance with a conventionally known method, and the protein bound to the probe was detected by an autoradiography.

## [H]/N=C(/N)N/C(=N/[H])NCCc1ccccc1 [phenformin]
[1]
  binding with Glu 175 Val mutation type ATP5B: not able to confirm the binding; also recorded: disappearance
[2]
  binding with Asp 295 Val mutation type ATP5B: not able to confirm the binding; also recorded: disappearance
[3]; HeLa S3 cell without ATP5B over-expression (empty vector- or pcDNA-LKB1-transferred), concentration of compounds A and B not given
  phosphorylation level (activation) of AMPK: significantly accelerated and activated
[3]; pcDNA-ATP5B-transferred HeLa S3 cell, metformin 10 mM
  activation of AMPK in cell over-expressing human ATP5B: not found; also recorded: disappearance
[4]
  amount of about 60 kDa protein band (ATP5B) binding to the molecular chaperone protein: reduced
[5]
  influence on binding of ATP5B and MTX-phenformin: obstructed
[6]
  binding with human ATP5B (band of about 60 kDa, autoradiography): directly binds; also recorded: able to confirm binding
